Results reported in patent US20190135793A1, “HETEROCYCLIC INHIBITORS OF KDM5 FOR THE TREATMENT OF DISEASE” (Board of Regents, The University of Texas System, priority 2017, published 2019).
Where two headings read alike, the source gives them in different places.

Legend:
KDM4C = molecular target: T1, KDM4C (Homo sapiens, UniProt Q9H3R0); test: KDM4C AlphaScreen assay; assay type: biochemical; conditions: AlphaScreen; full length KDM4C 0.2 nM; biotinylated H3K9Me3 peptide 3 nM; 30 minutes at room temperature
T1 construct: Full length of KDM5B and KDM4C protein were purchased from Active Motif; purchased Active Motif 31858
T1 sequence (Q9H3R0 1-1056): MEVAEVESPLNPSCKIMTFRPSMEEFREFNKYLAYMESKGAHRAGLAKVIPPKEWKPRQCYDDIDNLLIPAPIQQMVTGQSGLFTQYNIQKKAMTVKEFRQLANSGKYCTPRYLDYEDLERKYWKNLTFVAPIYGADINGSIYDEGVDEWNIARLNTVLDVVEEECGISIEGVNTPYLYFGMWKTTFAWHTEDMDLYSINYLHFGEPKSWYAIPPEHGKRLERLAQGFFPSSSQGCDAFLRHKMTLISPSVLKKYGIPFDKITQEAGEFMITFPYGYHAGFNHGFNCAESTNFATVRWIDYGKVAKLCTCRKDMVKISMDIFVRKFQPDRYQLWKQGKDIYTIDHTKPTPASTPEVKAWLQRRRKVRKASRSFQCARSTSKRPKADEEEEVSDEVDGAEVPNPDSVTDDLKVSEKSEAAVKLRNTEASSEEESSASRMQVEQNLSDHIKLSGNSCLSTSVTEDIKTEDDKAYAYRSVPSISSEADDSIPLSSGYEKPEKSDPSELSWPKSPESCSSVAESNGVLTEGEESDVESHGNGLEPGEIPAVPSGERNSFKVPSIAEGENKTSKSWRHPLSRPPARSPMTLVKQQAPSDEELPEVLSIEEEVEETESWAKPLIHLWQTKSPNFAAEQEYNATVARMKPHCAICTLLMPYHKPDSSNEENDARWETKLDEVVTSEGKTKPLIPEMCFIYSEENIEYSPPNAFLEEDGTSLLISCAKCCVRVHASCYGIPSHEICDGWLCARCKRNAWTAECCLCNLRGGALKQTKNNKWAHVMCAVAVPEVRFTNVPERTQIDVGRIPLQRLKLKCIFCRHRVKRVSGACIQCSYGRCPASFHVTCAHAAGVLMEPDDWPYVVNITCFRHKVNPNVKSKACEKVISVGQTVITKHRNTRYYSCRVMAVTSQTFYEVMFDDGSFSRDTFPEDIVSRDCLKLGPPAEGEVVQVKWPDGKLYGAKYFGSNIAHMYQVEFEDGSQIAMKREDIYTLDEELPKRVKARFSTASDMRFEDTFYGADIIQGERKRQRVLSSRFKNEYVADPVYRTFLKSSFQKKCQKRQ
Procedure, shortened: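 Full-length KDM4C (0.2 nM final) was preincubated 15 min at RT with compound in HEPES pH 7.4 with Tween-20, BSA and TCEP. The reaction ran 30 min at RT after adding biotinylated peptide (3 nM final) in buffer with Fe(II), α-ketoglutarate and ascorbate. EDTA-containing AlphaScreen beads stopped it; IC50 was curve-fitted.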

KDM5B = molecular target: T2, KDM5B (Homo sapiens, UniProt Q9UGL1); test: biochemical
T2 construct: Full length of KDM5B and KDM4C protein were purchased from Active Motif; purchased Active Motif 31832
Procedure, shortened: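 KDM5B (0.5 nM final) was preincubated with compound for 15 min at room temperature, then reacted with biotinylated peptide (3 nM final) for 25 min at room temperature.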

[1] = AlphaScreen, full length KDM5B 0.5 nM, biotinylated H3K4Me3 peptide 3 nM, 25 minutes at room temperature, read-out: KDM5B (IC50)

T2 sequence (Q9UGL1 whole entry): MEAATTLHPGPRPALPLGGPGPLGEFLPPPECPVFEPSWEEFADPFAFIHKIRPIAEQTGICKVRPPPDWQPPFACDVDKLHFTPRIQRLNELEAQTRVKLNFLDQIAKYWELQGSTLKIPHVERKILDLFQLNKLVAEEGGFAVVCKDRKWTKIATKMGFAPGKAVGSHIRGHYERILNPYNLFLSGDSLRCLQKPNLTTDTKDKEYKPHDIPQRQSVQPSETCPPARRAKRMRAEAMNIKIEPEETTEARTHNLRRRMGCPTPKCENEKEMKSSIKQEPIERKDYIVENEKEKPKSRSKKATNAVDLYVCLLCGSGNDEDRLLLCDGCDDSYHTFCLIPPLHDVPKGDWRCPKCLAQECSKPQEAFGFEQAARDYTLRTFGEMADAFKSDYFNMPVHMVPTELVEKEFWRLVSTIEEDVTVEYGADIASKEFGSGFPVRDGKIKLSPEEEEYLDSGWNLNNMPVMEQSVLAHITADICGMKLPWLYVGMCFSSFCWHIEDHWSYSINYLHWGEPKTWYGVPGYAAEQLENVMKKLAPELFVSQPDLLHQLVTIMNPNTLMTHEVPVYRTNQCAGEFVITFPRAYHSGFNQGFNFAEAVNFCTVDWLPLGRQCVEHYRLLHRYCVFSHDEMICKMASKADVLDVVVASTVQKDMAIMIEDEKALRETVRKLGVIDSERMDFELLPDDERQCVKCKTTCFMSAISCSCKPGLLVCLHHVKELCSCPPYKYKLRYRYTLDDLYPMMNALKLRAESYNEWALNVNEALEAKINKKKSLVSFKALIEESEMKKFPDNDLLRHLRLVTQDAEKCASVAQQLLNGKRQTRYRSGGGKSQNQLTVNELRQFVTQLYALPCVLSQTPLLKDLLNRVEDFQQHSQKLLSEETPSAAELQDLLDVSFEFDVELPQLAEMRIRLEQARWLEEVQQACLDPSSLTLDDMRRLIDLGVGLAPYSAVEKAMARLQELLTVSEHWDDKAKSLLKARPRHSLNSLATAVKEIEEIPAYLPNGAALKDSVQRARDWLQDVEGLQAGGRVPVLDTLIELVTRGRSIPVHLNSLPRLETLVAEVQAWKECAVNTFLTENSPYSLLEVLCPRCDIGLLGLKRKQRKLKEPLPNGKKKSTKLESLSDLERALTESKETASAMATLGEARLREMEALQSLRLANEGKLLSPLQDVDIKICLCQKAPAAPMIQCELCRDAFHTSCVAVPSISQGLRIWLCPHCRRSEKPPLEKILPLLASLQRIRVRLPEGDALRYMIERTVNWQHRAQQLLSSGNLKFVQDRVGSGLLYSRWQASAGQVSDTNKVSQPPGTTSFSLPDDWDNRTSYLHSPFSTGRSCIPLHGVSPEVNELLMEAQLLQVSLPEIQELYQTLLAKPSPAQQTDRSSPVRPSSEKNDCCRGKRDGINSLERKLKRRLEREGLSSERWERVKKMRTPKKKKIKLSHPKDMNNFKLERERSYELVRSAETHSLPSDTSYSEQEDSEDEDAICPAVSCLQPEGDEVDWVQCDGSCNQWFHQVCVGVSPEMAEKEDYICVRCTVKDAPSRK

SMILES	IC50 (KDM4C)	IC50 (KDM5B)	IC50 (KDM5B; [1])
CC(C)c1c(O)nc(-c2cncs2)nc1-c1cnn(C)c1 [Example 30, 5-isopropyl-6-(1-methyl-1H-pyrazol-4-yl)-2-(thiazol-5-yl)pyrimidin-4-ol]	15.3 µM	0.345 µM	
CC(C)c1c(O)nc(-n2ccnc2)nc1OCC1COCCN1 (stereo not shown) [Example 126, 2-(1H-Imidazol-1-yl)-6-(morpholin-3-ylmethoxy)-5-(propan-2-yl)pyrimidin-4-ol]	0.84 µM	0.015 µM	
CC(C)c1c(O)nc(-n2ccnc2)nc1-c1cnn(Cc2ccccn2)c1 [Example 64, 2-(1H-Imidazol-1-yl)-5-(propan-2-yl)-6-[1-(pyridin-2-ylmethyl)-1H-pyrazol-4-yl]-pyrimidin-4-ol]	2.01 µM		0.019 µM
CC(C)c1c(O)nc(-n2ccnc2)nc1-c1cnn(CC(=O)NC(CO)C(C)C)c1 (stereo not shown) [Example 115, 2-{4-[6-Hydroxy-2-(1H-imidazol-1-yl)-5-(propan-2-yl)pyrimidin-4-yl]-1H-pyrazol-1-yl}-N-(1-hydroxy-3-methylbutan-2-yl)acetamide]	1.25 µM	0.03 µM	
COCCNC(=O)Cn1cc(-c2nc(-n3ccnc3)nc(O)c2C(C)C)cn1 [Example 118, 2-{4-[6-Hydroxy-2-(1H-imidazol-1-yl)-5-(propan-2-yl)pyrimidin-4-yl]-1H-pyrazol-1-yl}-N-(2-methoxy-ethyl)acetamide]	3.08 µM	0.033 µM	
CC(C)c1c(O)nc(-n2ccnc2)nc1-c1cnn(CC(=O)N2CCCC(O)C2)c1 (stereo not shown) [Example 74, 2-{4-[6-Hydroxy-2-(1H-imidazol-1-yl)-5-(propan-2-yl)pyrimidin-4-yl]-1H-pyrazol-1-yl}-1-(3-hydroxy-piperidin-1-yl)ethan-1-one]	1.75 µM		0.025 µM
CC(C)c1c(O)nc(-n2ccnc2)nc1-c1cnn(CC(=O)N2CCOCC2)c1 [Example 117, 2-{4-[6-Hydroxy-2-(1H-imidazol-1-yl)-5-(propan-2-yl)pyrimidin-4-yl]-1H-pyrazol-1-yl}-1-(morpholin-4-yl)ethan-1-one]	1.97 µM	0.031 µM	
CC(C)c1c(O)nc(-n2ccnc2)nc1-c1cn[nH]c1 [Example 46, 2-(1H-Imidazol-1-yl)-5-(propan-2-yl)-6-(1H-pyrazol-4-yl)pyrimidin-4-ol]	1.13 µM		0.01 µM
CC(C)c1c(O)nc(-c2cncs2)nc1-c1cnn(C2CCNCC2)c1 [Example 154, 6-[1-(Piperidin-4-yl)-1H-pyrazol-4-yl]-5-(propan-2-yl)-2-(1,3-thiazol-5-yl)pyrimidin-4-ol]	13.9 µM	2.13 µM	
CC(C)c1c(O)nc(-n2ccnc2)nc1-c1cnn(CCN2CCOCC2)c1 [Example 68, 2-(1H-Imidazol-1-yl)-6-{1-[2-(morpholin-4-yl)ethyl]-1H-pyrazol-4-yl}-5-(propan-2-yl)pyrimidin-4-ol]	2.45 µM	0.021 µM	
CC(C)c1c(O)nc(-n2ccnc2)nc1-c1cnn(CC(=O)NCc2ccn(C)n2)c1 [Example 106, 2-{4-[6-Hydroxy-2-(1H-imidazol-1-yl)-5-(propan-2-yl)pyrimidin-4-yl]-1H-pyrazol-1-yl}-N-[(1-methyl-1H-pyrazol-3-yl)methyl]-acetamide]	0.869 µM	0.018 µM	
Cc1ccc(-c2nc(-n3ccnc3)nc(O)c2C(C)C)cc1N [Example 54, 6-(3-Amino-4-methylphenyl)-2-(1H-imidazol-1-yl)-5-(propan-2-yl)pyrimidin-4-ol]	0.896 µM	0.015 µM	
Oc1nc(-c2cncs2)ncc1C(F)(F)F [Example 33, 2-(1,3-Thiazol-5-yl)-5-(trifluoromethyl)pyrimidin-4-ol]	3.64 µM	2.53 µM	
CC(C)c1c(O)nc(-n2ccnc2)nc1-c1cnn(CC(=O)NCCN2CCC(O)CC2)c1 [Example 92, 2-{4-[6-Hydroxy-2-(1H-imidazol-1-yl)-5-(propan-2-yl)pyrimidin-4-yl]-1H-pyrazol-1-yl}-N-[2-(4-hydroxypiperidin-1-yl)ethyl]-acetamide]	0.525 µM	0.006 µM	
CC(C)c1c(O)nc(-n2ccnc2)nc1-c1cccc(CNS(C)(=O)=O)c1 [Example 76, N-({3-[6-Hydroxy-2-(1H-imidazol-1-yl)-5-(propan-2-yl)pyrimidin-4-yl]phenyl}-methyl)methanesulfonamide]	1.86 µM	0.029 µM	
CC(C)c1c(O)nc(-n2ccnc2)nc1OCC(=O)N1CCOCC1 [Example 142, 2-{[6-Hydroxy-2-(1H-imidazol-1-yl)-5-(propan-2-yl)pyrimidin-4-yl]oxy}-1-(morpholin-4-yl)ethan-1-one]	2.13 µM	0.035 µM	
Cc1nc(-c2scnc2C(=O)NCc2ccccc2)nc(O)c1C(C)C [Example 150, N-benzyl-5-[6-methyl-4-oxo-5-(propan-2-yl)-1,4-dihydropyrimidin-2-yl]-1,3-thiazole-4-carboxamide]	16.9 µM	1.12 µM	
CC(C)c1c(O)nc(-c2cncs2)nc1OCc1ccccn1 [Example 145, 5-(Propan-2-yl)-6-(pyridin-2-ylmethoxy)-2-(1,3-thiazol-5-yl)pyrimidin-4-ol]	21 µM	0.163 µM	
CC(C)c1c(O)nc(-n2ccnc2)nc1-c1ccc(CO)cc1 [Example 58, 6-[4-(Hydroxymethyl)-phenyl]-2-(1H-imidazol-1-yl)-5-(propan-2-yl)pyrimidin-4-ol]	1.22 µM	0.016 µM	
CC(C)c1c(O)nc(-n2ccnc2-c2ccccn2)nc1Cl [Example 2, 6-Chloro-5-(propan-2-yl)-2-[2-(pyridin-2-yl)-1H-imidazol-1-yl]pyrimidin-4-ol]	3.89 µM	0.229 µM	
CC(C)c1c(O)nc(-n2ccnc2)nc1NCc1cccnc1 [Example 18, 2-(1H-Imidazol-1-yl)-5-isopropyl-6-((pyridin-3-ylmethyl)amino)pyrimidin-4-ol]	2.97 µM	0.027 µM	
Oc1nc(-c2cncs2)ncc1C1CC1 [Example 32, 5-cyclopropyl-2-(thiazol-5-yl)pyrimidin-4-ol]	14.1 µM	4.42 µM	
CC(C)c1c(O)nc(-n2ccnc2)nc1-c1cnn(CC(=O)NCC2CN(C)CCO2)c1 (stereo not shown) [Example 97, 2-{4-[6-Hydroxy-2-(1H-imidazol-1-yl)-5-(propan-2-yl)pyrimidin-4-yl]-1H-pyrazol-1-yl}-N-[(4-methyl-morpholin-2-yl)methyl]-acetamide]	0.613 µM	0.007 µM	
CNC(=O)c1cccc(-c2nc(-n3ccnc3)nc(O)c2C(C)C)c1 [Example 57, 3-[6-Hydroxy-2-(1H-imidazol-1-yl)-5-(propan-2-yl)pyrimidin-4-yl]-N-methyl-benzamide]	2.03 µM	0.016 µM	
CC(C)c1c(O)nc(-n2ccnc2)nc1OCCN1CCOCC1 [Example 123, 2-(1H-Imidazol-1-yl)-6-[2-(morpholin-4-yl)ethoxy]-5-(propan-2-yl)pyrimidin-4-ol]	1.59 µM	0.009 µM	
CC(C)c1c(O)nc(-n2ccnc2)nc1OCC1CCOCC1 [Example 139, 2-(1H-Imidazol-1-yl)-6-(oxan-4-ylmethoxy)-5-(propan-2-yl)pyrimidin-4-ol]	3.68 µM		0.075 µM
CC(C)c1c(O)nc(-n2ccnc2)nc1-c1cnn(CC(=O)N2CCC(O)CC2)c1 [Example 119, 2-{4-[6-Hydroxy-2-(1H-imidazol-1-yl)-5-(propan-2-yl)pyrimidin-4-yl]-1H-pyrazol-1-yl}-1-(4-hydroxy-piperidin-1-yl)ethan-1-one]	1.85 µM		0.039 µM
Cc1nc(-c2c[nH]cn2)nc(O)c1C(C)C [Example 21, 2-(1H-imidazol-4-yl)-5-isopropyl-6-methylpyrimidin-4-ol]	21.1 µM	1.93 µM	
CC(CN1CCOCC1)Oc1nc(-n2ccnc2)nc(O)c1C(C)C (stereo not shown) [Example 138, 2-(1H-Imidazol-1-yl)-6-{[1-(morpholin-4-yl)propan-2-yl]oxy}-5-(propan-2-yl)-pyrimidin-4-ol]	5.56 µM	0.065 µM	
